Source: patent US7344704B2, “Use of perfluoroalkyl-containing metal complexes as contrast media in MR-imaging for visualization of intravascular thrombi” (Schering AG, priority 2002, dated 2008)

Assays:
Format in all cases: physicochemical
[1] = Proton relaxivity R^1 in plasma (Minispec P 20); settings: in plasma (bovine) at 40° C., field strength 0.47 Tesla
Method: As a third criterion, the proton-relaxivity in plasma (R^1) at 40° C. and a field strength of 0.47 tesla are used. The relaxivity, which is indicated in [l/mmol·s], is the quantitative measurement for the shortening of relaxation time T^1 of the protons. For the purpose according to the invention, the relaxivity must be as high as possible and >10 l/mmol·s, preferably >13 l/mmol·s, especially preferably >15 l/mmol·s.
Relaxivity R^1 [l/mmol·s] of the MR-contrast media according to the invention was determined with the Minispec P 20 device of the Bruker Company. The measurements were taken at 40° C. and a field strength of 0.47 tesla. Eight measuring points were recorded by each T1-sequence: 180°-TI-90°, inversion recovery. As a medium, bovine plasma of the Kraeber Company was used. The contrast medium concentrations [mmol/l] in the batches were between 0.30 and 1.16.
The measurements were carried out in plasma at 40° C. and a field strength of 0.47 Tesla.

[2] = Critical micelle formation concentration (CMC) by tensiometry
Method: In aqueous systems, these amphiphilic molecules show the properties that are characteristic of standard surfactants (such as, e.g., sodium dodecylsulfate, SDS). They thus reduce the surface tension of water. By tensiometry, the so-called CMC (critical micelle formation concentration in mol/l) can be determined. In this respect, the surface tension is determined based on the concentration of the substance to be measured. The CMC can be calculated from the plot of the surface tension function (c) that is obtained. The critical micelle formation concentration of the compounds according to the invention must be <10^−3 mol/l, preferably <10^−4 mol/l.
(§1) Both the determination of the CMC and the photon correlation spectroscopy are described in H.-D. Dörfler, “Grenzflächen-und Kolloidchemie [Interface and Colloid Chemistry],” Weinheim, New York, Basel, Cambridge, Tokyo, VSH 1994.

[3] = Hydrodynamic micelle diameter 2 Rh by photon correlation spectroscopy
Source text: The amphiphilic compounds according to the invention are associated in solution and are present as aggregates. The size (2 Rh) of such aggregates (e.g., micelles, rods, wafers, etc.) can be determined with the aid of […] (PCS).
As a second criterion, the hydrodynamic micelle diameter 2 Rh, which must be >1 nm, is therefore used. In particular, those perfluoroalkyl-containing metal complexes according to the invention whose 2 RH≧3 nm, quite especially preferably >4 nm, are suitable.
as §1

Molecule	R^1 (Relaxivity) [1]	CMC (Critical Micelle Formation Concentration) [2] [mol/L]	2 Rh (Hydrodynamic Micelle Diameter) [3] [nm]
COCCOCCOCCOCCOCC(=O)NCCCC[C@H](NC(=O)COCCC(F)(F)C(F)(F)C(F)(F)C(F)(F)C(F)(F)C(F)(F)C(F)(F)C(F)(F)F)C(=O)NCC(O)CN1CCN(CC(=O)[O-])CCN(CC(=O)[O-])CCN(CC(=O)[O-])CC1.[Gd+3] (stereo partly drawn) [MK 28, 6-N-3,6,9,12,15-Pentaoxahexadecanoyl-2-N-2H,2H,4H,4H,5H,5H-3-oxaperfluorotridecanoyl-L-lysine-N-{1,4,7-tris[carboxylatomethyl]-1,4,7,10-tetraazacyclododecane-10-(2-hydroxy-3-yl), gadoliniumcomplex}-amide]	27.9 l: mmol · s	8.1e-06	4.7
O=C([O-])CN1CCN(CC(=O)[O-])CCN(CC(O)CNC(=O)CNC(=O)CNC(=O)CNC(=O)COCCC(F)(F)C(F)(F)C(F)(F)C(F)(F)C(F)(F)C(F)(F)C(F)(F)C(F)(F)F)CCN(CC(=O)[O-])CC1.[Gd+3] (stereo not drawn) [MK 30, 1,4,7-Tris(carboxylatomethyl)-1,4,7,10-tetraazacyclododecane-10-{2-hydroxy-3-N-[triglycidyl-N-(2H,2H,4H,4H,5H,5H-3-oxa-perfluorotridecanoyl)]amino}-propyl, gadolinium complex]	27.9 l: mmol · s	7e-06	7.9
Gadolinium complex of 10-{1-carboxy-2-carbonyl-[piperazin-1-yl-4-(perfluorooctylsulfonyl)]}-ethyl-1,4,7-tris(carboxymethyl)-1,4,7,10-tetraazacyclododecane, Sodium salt [MK 29]	17.7 l: mmol · s	7.6e-05	4.8
gadolinium complex of 1,4,7-tris{1,4,7-tris(N-(carboxylatomethyl)-10-[N-1-methyl-3,6-diaza-2,5,8-trioxooctane-1,8-diyl)]-1,4,7,10-tetraazacyclododecane, Gd complex}-10-[N-2H,2H,4H,4H,5H,5H-3-oxa-perfluorotridecanoyl]-1,4,7,10-tetraazacyclododecane [MK 12]	19.5 l: mmol · s	0.00089	2.2
